Laboratory results published in article PMC6917776, “Discovery of a chemical probe for PRDM9” (Nature Communications, 2019).
Values joined by “and” are separate entries in the source; they are usually repeats but may differ in a detail not shown here. Identical values can stand only once. “Also recorded” adds a separate entry of the source.

What was measured:
[1] = tested on: NanoLuc-tagged PRDM9 (residues 135–285); assay: NanoLuciferase thermal shift assay (NALTSA) in HEK293T cells; format: cell-based, human; conditions: for Tm of PRDM9 in cells (NALTSA): 0.1% DMSO, DMSO control Tm 52 ± 0.3 °C; for ∆Tm (°C): Fig. 5b, replicates; for Normalized_Signal: Fig. 5a, independent replicates
Experimental: Cells treated with 0.1% DMSO alone were used as a control.
Shown is the mean ± SEM of three biological replicates. Boxes indicate the mean values. P-values calculated using an unpaired Welch’s two-tailed t-test, *p-value = 0.017. Source data are provided as a Source Data file.
NALTSA assays were performed as previously described. Briefly, HEK293T cells were plated in 6-well plates at a density of 1.5 × 10^5 cells/mL. The following day, cells were transfected with 2 µg of C-terminally NanoLuc®-tagged PRDM9 (residues 135–285) with X-tremeGene HP DNA Transfection Reagent (Roche). Cells were incubated for 24 h, trypsinized and resuspended at 1.5 × 10^5 cells/mL in 1x PBS supplemented with protease inhibitors. Cell suspensions were incubated at 37 °C with 10 μM compound or 0.1% DMSO alone for 1 h. Sixty microliters of cells was dispensed per well of a 96-well PCR plate followed by heating across a temperature gradient for 3 min on a Mastercycler® thermal cycler (Eppendorf). After heating, samples were transferred to a 96-well white plastic plate (Corning) and Glo® Substrate (Promega) was added to each well at 1:1000 final dilution. NanoLuciferase signal was read at 450 nm (filter: 450 nm/BP 80 nm) on a CLARIOstar microplate reader (Mandel).

[2] = tested on: spermatocytes; assay: Testis microinjection, meiotic chromosome spreads (SYCP1/SYCP3 staining); format: in vivo, mouse; conditions: wild type mice, 2 µl of 1 µM into both testes at P12, analysed at P15
Experimental: Supplementary Figure 14. Comparison of meiotic progression in the presence of MRK -740-NC and MRK-740 treated spermatocytes. Representative images of meiotic chromosome […]
(c) untreated Prdm9-/- mice are presented. At p12, mice were treated with either MRK -740-NC or MRK-740 or received no treatment. Immunofluoresence co -staining was performed with SYCP1 (green) and SYCP3 (magenta) antibodies to visualize the formation of the synaptonemal […]
mice treated with MRK-740-NC.
(1 picture or pasted object on this page, not shown here) […]
Transgenic mouse lines used in this study
Prdm9KO 2, mice have been described and were maintained on a C57BL/6 background. Mice were housed under standard conditions, were maintained on a 12- hour light/dark cycle, were fed a standard chow diet containing 6% crude fat, and were treated in compliance with the institutional guidelines for animal care and use. All experimental protocols were approved by the Animal Care and Use Committee of Biological Resource Centre at Biopolis, A*STAR, […]
Testis microinjection protocol
Seminiferous tubule microinjection was performed as previously described 3,4. At postnatal day 12 (P12) A small incision was made in the abdomen of the mouse and testes were exposed by pulling the abdominal fat pad. Testis were injected using a micro-capillary pipette injector (made in-house). […]

[3] = tested on: HEK293T cells; assay: Cell growth, IncuCyte ZOOM cell number; format: cell-based; conditions: for HEK293T cell growth (in words): 24 h of treatment; for Cell# - toxocity data, % Control: HEK293T-1day, Figure 6c, technical replicates

Structure (SMILES) | Tm of PRDM9 in cells (NALTSA) ([1]; 10 µM compound, 1 h) | ∆Tm (°C) [1] | Normalized_Signal ([1]; Temperature 41.9 °C) | Normalized_Signal ([1]; Temperature 42.4 °C) | Normalized_Signal ([1]; Temperature 43.6 °C) | Normalized_Signal ([1]; Temperature 45.5 °C) | Normalized_Signal ([1]; Temperature 47.8 °C) | Normalized_Signal ([1]; Temperature 50.4 °C) | Normalized_Signal ([1]; Temperature 53.1 °C) | Normalized_Signal ([1]; Temperature 55.8 °C) | Normalized_Signal ([1]; Temperature 58.1 °C) | Normalized_Signal ([1]; Temperature 60.1 °C) | Normalized_Signal ([1]; Temperature 61.5 °C) | Normalized_Signal ([1]; Temperature 62.1 °C) | Meiotic phenotype of spermatocytes, pachytene stage (in words) [2] | HEK293T cell growth (in words) ([3]; 3 µM) | Cell# - toxocity data, % Control ([3]; 1 µM) | Cell# - toxocity data, % Control ([3]; 3 µM) | Cell# - toxocity data, % Control ([3]; 5 µM) | Cell# - toxocity data, % Control ([3]; 10 µM) | other results
COc1cc(OC)cc(-c2noc(N3CCN(C)C4(CCN(c5ccccc5)CC4)C3)n2)c1 [MRK-740-NC] | 51.6 ± 0.3 °C | 0.2175 °C and -0.9409 °C and -0.4232 °C | 1 | 0.9008 and 0.9609 and 1.092 | 0.8855 and 0.9556 and 0.9997 | 0.873 and 0.8101 and 0.9461 | 0.7977 and 0.6572 and 0.8375 | 0.6003 and 0.5454 and 0.5984 | 0.5018 and 0.4469 and 0.4089 | 0.3624 and 0.3667 and 0.3326 | 0.3387 and 0.2885 and 0.2383 | 0.2284 and 0.1546 and 0.1556 | 0.2018 and 0.1276 and 0.1034 | 0.1991 and 0.1124 and 0.111 | Normal synaptonemal complex formation; also recorded: no overt meiotic defects | neither compound affected HEK293T cell growth | 113.12 % Control and 118.767 % Control and 86.3705 % Control | 125.539 % Control and 114.582 % Control and 84.3363 % Control | 86.195 % Control and 121.075 % Control and 87.3323 % Control | 76.5766 % Control and 74.1915 % Control and 52.2642 % Control | –
COc1cc(OC)cc(-c2noc(N3CCN(C)C4(CCN(c5ccnc(C)c5)CC4)C3)n2)c1 [MRK-740] | 54 ± 0.2 °C | 2.141 °C and 1.141 °C and 2.73 °C | 1 | 1.082 and 0.9671 and 1.026 | 1.044 and 1.056 and 1.097 | 1.058 and 1.067 and 0.973 | 1.041 and 0.9815 and 0.9273 | 0.9323 and 0.8369 and 0.6881 | 0.6552 and 0.5708 and 0.5431 | 0.4561 and 0.4452 and 0.3801 | 0.3081 and 0.2709 and 0.2289 | 0.1968 and 0.1844 and 0.1466 | 0.1518 and 0.1586 and 0.1205 | 0.1417 and 0.1648 and 0.1053 | Abnormal synaptonemal complex formation; also recorded: meiotic defects including non-homologous synapsis or failed pairing of chromosomal homologs | neither compound affected HEK293T cell growth | 89.1325 % Control and 119.658 % Control and 130.764 % Control | 81.2039 % Control and 117.832 % Control and 120.808 % Control | 86.208 % Control and 117.65 % Control and 129.14 % Control | 89.6654 % Control and 116.798 % Control and 107.394 % Control | ∆Tm of PRDM9 in cells (NALTSA) ([1]; 10 µM compound, 1 h, versus DMSO): 2 °C
